In the NIST ThermoML archive (doi:10.1016/j.jct.2013.09.039):

Assay: xn = mol fraction of the nth substance listed
Conditions: Liquid, Vibrating tube method

Cc1ccc(C)cc1 [1,4-dimethylbenzene] + CCCCCCCCCC
mass density [kg/m3]
Conditions | 100 kPa | 5000 kPa | 10000 kPa | 20000 kPa | 30000 kPa | 40000 kPa
288.15 K, x2 = 0.0513 | 854 | 858 | 861.4 | 867.9 | 873.8 | 879.5
288.15 K, x2 = 0.0971 | 845.3 | 849.4 | 852.8 | 859.2 | 865 | 870.8
288.15 K, x2 = 0.1962 | 828.2 | 831.6 | 835 | 841.5 | 847.4 | 853.3
288.15 K, x2 = 0.2932 | 812.1 | 815.9 | 819.4 | 825.7 | 831.8 | 837.6
288.15 K, x2 = 0.3942 | 799.8 | 803.5 | 806.9 | 813.5 | 819.4 | 825.1
288.15 K, x2 = 0.4987 | 784.1 | 787.7 | 791.4 | 797.7 | 803.8 | 809.4
288.15 K, x2 = 0.5563 | 777.2 | 780.7 | 784.2 | 790.8 | 796.7 | 802.5
288.15 K, x2 = 0.5965 | 773.9 | 777 | 779.5 | 786 | 792 | 798.1
288.15 K, x2 = 0.7018 | 761 | 764.7 | 768.4 | 774.8 | 780.7 | 786.3
288.15 K, x2 = 0.8047 | 750.8 | 754.4 | 757.9 | 764.3 | 770.4 | 776
288.15 K, x2 = 0.8975 | 741 | 745.1 | 748.6 | 755.6 | 761.9 | 768.1
288.15 K, x2 = 0.9474 | 738 | 741.8 | 745.2 | 751.5 | 757.6 | 763.2
298.15 K, x2 = 0.0513 | 845.7 | 850.1 | 853.3 | 860 | 866.2 | 872.1
298.15 K, x2 = 0.0971 | 837.1 | 841.3 | 844.4 | 851.2 | 857.6 | 863.4
298.15 K, x2 = 0.1962 | 819.6 | 823.7 | 827 | 833.8 | 840.2 | 846
298.15 K, x2 = 0.2932 | 804 | 808.2 | 811.4 | 818.4 | 824.7 | 830.4
298.15 K, x2 = 0.3942 | 791.6 | 795.8 | 799.2 | 806 | 812.4 | 818.2
298.15 K, x2 = 0.4987 | 776 | 780.5 | 783.6 | 790.4 | 796.8 | 802.6
298.15 K, x2 = 0.5563 | 769 | 773.4 | 776.7 | 783.6 | 789.9 | 795.7
298.15 K, x2 = 0.5965 | 765 | 768.7 | 771.9 | 778.8 | 785.2 | 791.1
298.15 K, x2 = 0.7018 | 753.2 | 757.6 | 760.8 | 767.7 | 774 | 779.8
298.15 K, x2 = 0.8047 | 742.9 | 747.2 | 750.5 | 757.4 | 763.7 | 769.5
298.15 K, x2 = 0.8975 | 734.6 | 738.6 | 741.8 | 748.2 | 755.2 | 761.6
298.15 K, x2 = 0.9474 | 730.4 | 734.6 | 738 | 744.7 | 750.9 | 757.2
308.15 K, x2 = 0.0513 | 837.2 | 841.3 | 844.9 | 851.9 | 858.8 | 865.1
308.15 K, x2 = 0.0971 | 828.6 | 832.6 | 836.5 | 843.4 | 849.8 | 856
308.15 K, x2 = 0.1962 | 811.1 | 815.2 | 819.1 | 826 | 832.7 | 838.9
308.15 K, x2 = 0.2932 | 795.7 | 799.9 | 803.7 | 810.6 | 817.4 | 823.6
308.15 K, x2 = 0.3942 | 783.5 | 787.7 | 791.4 | 798.6 | 805.2 | 811.3
308.15 K, x2 = 0.4987 | 768.1 | 772.1 | 776.1 | 783.3 | 789.9 | 795.9
308.15 K, x2 = 0.5563 | 761 | 765.2 | 769.3 | 776.4 | 783 | 789.1
308.15 K, x2 = 0.5965 | 757 | 760.6 | 764.5 | 771.7 | 778.2 | 785
308.15 K, x2 = 0.7018 | 746.3 | 749.6 | 753.5 | 760.6 | 767 | 773.3
308.15 K, x2 = 0.8047 | 736.1 | 739.4 | 743.3 | 750.3 | 757 | 763.1
308.15 K, x2 = 0.8975 | 727.9 | 731.3 | 734.8 | 741.9 | 748.5 | 755.1
308.15 K, x2 = 0.9474 | 723.2 | 726.8 | 730.9 | 737.9 | 744.4 | 750.9

Cc1ccc(C)cc1 [1,4-dimethylbenzene] + COC(=O)OC
mass density [kg/m3]
Conditions | x2 = 0.0432 | x2 = 0.195 | x2 = 0.3968 | x2 = 0.4933 | x2 = 0.5296 | x2 = 0.5993 | x2 = 0.7034 | x2 = 0.8023 | x2 = 0.8921 | x2 = 0.9478
288.15 K, 100 kPa | 871.8 | 894.2 | 924.2 | 944.9 | 953.3 | 968.4 | 992.3 | 1010.6 | 1038.1 | 1052.9
288.15 K, 5000 kPa | 875.5 | 897.8 | 931.9 | 950.4 | 957.3 | 972.4 | 996.2 | – | 1042.5 | 1057.2
288.15 K, 10000 kPa | 879.1 | 901.3 | 935.7 | 954.1 | 961.2 | 976.3 | 1000.3 | – | 1046.6 | 1061.4
288.15 K, 20000 kPa | 885.4 | 907.8 | 942.5 | 961.4 | 968.3 | 983.7 | 1007.8 | – | 1054.5 | 1069.4
288.15 K, 30000 kPa | 891.3 | 914 | 949 | 967.9 | 974.9 | 990.5 | 1014.7 | – | 1061.5 | 1076.7
288.15 K, 40000 kPa | 897.1 | 920.1 | 955.3 | 974.3 | 980.9 | 997.1 | 1021.4 | – | 1068.7 | 1083.8
298.15 K, 100 kPa | 863 | 884.5 | 917.8 | 935.8 | 942.5 | 957.3 | 980.5 | 998.4 | 1025.5 | 1040
298.15 K, 5000 kPa | 867.3 | 888.3 | 922.5 | 940.6 | 947.1 | 962 | 985.4 | 1003.4 | 1030.6 | 1044.9
298.15 K, 10000 kPa | 870.4 | 892.1 | 925.8 | 944 | 950.7 | 965.7 | 989.1 | – | 1034.7 | 1049
298.15 K, 20000 kPa | 877.1 | 899.2 | 933.2 | 951.6 | 958.2 | 973.4 | 997 | – | 1042.9 | 1057.5
298.15 K, 30000 kPa | 883.4 | 905.5 | 939.9 | 958.7 | 965.4 | 980.5 | 1004.4 | 1022.7 | 1050.6 | 1065
298.15 K, 40000 kPa | 889.1 | 911.7 | 946.5 | 965.1 | 972 | 987.3 | 1011.2 | 1030.1 | 1057.9 | 1072.7
308.15 K, 100 kPa | 854.3 | 875.2 | 907.6 | 925.2 | 931.7 | 946.3 | 969 | – | 1013.1 | 1027.2
308.15 K, 5000 kPa | 858.1 | 879.3 | 912.1 | 929.7 | 936.2 | 950.8 | 973.7 | – | 1018 | 1032.1
308.15 K, 10000 kPa | 862 | 883.3 | 916.2 | 934.1 | 940.4 | 955.2 | 978.2 | – | 1022.7 | 1036.8
308.15 K, 20000 kPa | 869.1 | 890.7 | 924 | 941.8 | 948.4 | 958.3 | 986.4 | 1004.4 | 1031.5 | 1045.7
308.15 K, 30000 kPa | 875.7 | 897.5 | 931.2 | 949.4 | 956 | 970.9 | 994.2 | 1012.2 | 1039.7 | 1054
308.15 K, 40000 kPa | 881.7 | 904 | 937.9 | 956.3 | 963 | 978.1 | 1001.5 | 1019.8 | 1047.4 | 1061.7
